Data: US8048924B2, “Methods and compositions employing 4-aminophenylacetic acid compounds” (Biocon Limited, priority 2001, dated 2011)
Entries after “also recorded” stand apart in the source; their conditions may differ.

Assays:
[1] = system: Clostridium difficile toxin A-induced colitis; assay: Toxin A-induced colitis, chronic oral administration in drinking water for 5 days; format: in vivo, Sprague-Dawley rats; conditions: for doses that significantly inhibited toxin A-induced colitis: chronically for 5 days in drinking water, doses tested 1-100; for potency relative to sulfasalazine for inhibiting toxin A-induced colitis: chronic oral, dose-response studies
Method: Eighteen adult male Sprague-Dawley rats weighing 175-222 grams were divided into 3 groups each consisting of 6 animals: • 4-APAA (AA-002) 100 mg/kg orally+Toxin A (10 μg) injected into the lumen of the colon • Vehicle (DW) orally+Toxin A (10 μg) injected into the lumen of the colon • Vehicle (DW) orally
Following 5 days of 4-APAA administration in drinking water, both ketamine (67 mg/kg) and xylazine (33 mg/kg) were administered, an isolated colonic segment was surgically created, and 10 μg of Clostridium difficile toxin A was injected into the lumen of the colon. After 3 hours, the rats were euthanized and colonic inflammation was assessed by quantitating luminal fluid accumulation and myeloperoxidase (MPO) content in the colon tissue. In addition, histological evaluation of the treated colon segments was completed.
(§1) Drug Administration. In studies using chronic administration, sulfasalazine, APAZA™, and 4-APAA were administered in the drinking water at doses ranging from 0.1-100 mg/kg·d for 5 days. Sulfasalazine and APAZA™ were initially dissolved in 0.1 N NaOH at 30 times the desired final concentration and then the pH was adjusted to 8.5 with 1 N HCl and the solution was diluted 30-fold with distilled water. 4-APAA was dissolved in water. On the fifth day, the rats were fasted overnight (with access to their drinking water±sulfasalazine, APAZA™, or 4-APAA ad lib), anesthetized, and isolated colonic segments were surgically created as described below. In studies using acute administration, the rats were pretreated by injection of 4-APAA at doses of 10 or 100 μg in 200 μl of PBS (pH 7.4) into the lumen of the colonic segment using a 27 ga syringe needle. Toxin A (10 μg) in 200 μl of PBS (pH 7.4) was tested alone or injected into the lumen of the colonic segment 30 minutes after 4-APAA using a 27 ga syringe needle.
(§2) Surgery. Isolated colonic segments were created in male Sprague-Dawley rats (150-175 g) as described previously for isolated ileal segments (see, Gastroenterol. 111: 1272-1280 (1996) and Proc. Natl. Acad. Sci. USA 91: 947-951 (1994). Rats fasted overnight with free access to drinking water were anesthetized by intramuscular injection of 67 mg/kg ketamine:33 mg/kg xylazine. A midline abdominal incision was made and colonic segments 5 cm in length were created by ligation with 4-0 silk sutures, taking care not to disturb the vascular supply. Toxin A (10 μg) in 400 μl of PBS (pH 7.4) was injected into the lumen of the colonic segment using a 27 ga syringe needle. Control rats were prepared similarly and their colonic segments were injected with the vehicles. The midline incision was then closed with a running suture, and the rats were placed on a heating pad at 37° C. for 3 hours. After 3 hours, the rats were euthanized and samples of the treated colonic segments were taken for analysis in vitro.
(§3) Histopathology. The severity of colonic histological damage was assessed using formalin-fixed, paraffin-embedded, H&E-stained sections.
(§4) Luminal Fluid Accumulation. Luminal fluid accumulation was measured gravimetrically. After 3 hours of treatment, the isolated colonic segments were removed, weighed, and their lengths were measured. Luminal fluid accumulation is expressed as mg wet weight per cm length.
Myeloperoxidase Activity. Myeloperoxidase (MPO) activity was measured as described previously (see, J. Invest. Dermatol. 78: 206-209 (1982)). Briefly, pieces of control and treated colonic segments were homogenized in 0.5% hexadecyltrimethylammonium bromide in 50 mM KH2PO4 (pH 6), freeze/thawed three times, centrifuged at 4° C. for 2 minutes, and then the absorbance of each supernatant was read at 460 nm at 0, 30, and 60 seconds after the addition of 2.9 ml of o-dianisidine dihydrochloride to 0.1 ml supernatant. The maximal change in absorbance per minute was used to calculate the units of MPO activity based on the molar absorbency index of oxidized o-dianisidine of 1.13×10^4 M^−1 cm^−1. […]

[2] = system: Clostridium difficile toxin A-induced colitis; assay: Toxin A-induced colitis, acute intraluminal pretreatment of isolated colonic segment; format: in vivo, Sprague-Dawley rats; conditions: for toxin A-induced structural damage of the colon (H&E) / percent inhibition of toxin A-induced MPO activity / percent inhibition of toxin A-induced luminal fluid accumulation: 30 minutes before toxin A; for relative potency and interaction for inhibition of acute toxin A-induced colitis: given alone versus together
Method: as §1, §2, §3, §4
Myeloperoxidase Activity. Myeloperoxidase (MPO) activity was measured as described previously (see, J. Invest. Dermatol. 78: 206-209 (1982)). Briefly, pieces of control and treated colonic segments were homogenized in 0.5% hexadecyltrimethylammonium bromide in 50 mM KH2PO4 (pH 6), freeze/thawed three times, centrifuged at 4° C. for 2 minutes, and then the absorbance of each supernatant was read at 460 nm at 0, 30, and 60 seconds after the addition of 2.9 ml of o-dianisidine dihydrochloride to 0.1 ml supernatant. The maximal change in absorbance per minute was used to calculate the units of MPO activity based on the molar absorbency index of oxidized o-dianisidine of 1.13×10^4 M^−1 cm^−1. The results are expressed as MPO units of activity per mg of tissue wet weight.
Adult male Sprague-Dawley rats (175-225 grams body weight) were purchased from Charles River Labs (Raleigh, N.C.). 4-APAA and 5-ASA were separately injected into the lumen of an isolated segment of the rat colon at doses of 0.01, 0.1, 1, and 10 μg (in volumes of 200 μl) 30 minutes prior to injection of 10 μg of Clostridium difficile toxin A. In a follow-up study, a combined dose of 10 ng (0.01 μg) each of 4-APAA and 5-ASA was injected prior to toxin A.
[…] Colonic inflammation was assessed by quantitating luminal fluid accumulation and myeloperoxidase content in the colonic segment tissue, and by examination of colonic structural damage using hematoxylin & eosin-stained sections of the treated colonic segment.
Surgery. […]

[3] = 100 mg/kg·day in drinking water, 5 days
[4] = 100 mg/kg·day in drinking water, 5 days, toxin A 10 μg
[5] = 0.01 μg (10 ng) each, intraluminal
[6] = 0.5 mg/kg·day in drinking water, 5 days
[7] = 1 mg/kg·day in drinking water, 5 days
[8] = 10 mg/kg·day in drinking water, 5 days

Row | SMILES | toxin A-induced MPO activity, significance of inhibition [1, 3] | toxin A-induced luminal fluid accumulation, significance of inhibition [1, 3] | toxin A-induced structural damage of the colon (H&E) [1, 3] | doses that significantly inhibited toxin A-induced colitis [1] | toxin A-induced MPO activity, significance of inhibition [2, 5] | toxin A-induced luminal fluid accumulation, significance of inhibition [2, 5] | toxin A-induced structural damage of the colon (H&E) [2, 5] | toxin A-induced luminal fluid accumulation, significance of inhibition ([2]; 0.1 μg intraluminal) | toxin A-induced structural damage of the colon (H&E) ([2]; 0.1 μg intraluminal) | toxin A-induced MPO activity, significance of inhibition ([2]; 1.0 μg intraluminal) | toxin A-induced luminal fluid accumulation, significance of inhibition ([2]; 1.0 μg intraluminal) | toxin A-induced structural damage of the colon (H&E) ([2]; 1.0 μg intraluminal) | toxin A-induced MPO activity, significance of inhibition ([2]; 10 μg intraluminal) | toxin A-induced luminal fluid accumulation, significance of inhibition ([2]; 10 μg intraluminal) | toxin A-induced structural damage of the colon (H&E) ([2]; 10 μg intraluminal) | relative potency and interaction for inhibition of acute toxin A-induced colitis [2] | also measured
1 | Nc1ccc(CC(=O)O)cc1 [4-APAA, (4-aminophenyl)-acetic acid] | significantly inhibited | significantly inhibited | protected the structural integrity; also recorded: strongly protected | 100 mg/kg·day | not significantly inhibited | significantly inhibited | did not prevent | significantly inhibited | preserved mucosal folding | significantly inhibited | significantly inhibited | preserved mucosal folding | significantly inhibited | significantly inhibited | strongly protected; also recorded: virtually completely protected | approximately equipotent | percent inhibition of toxin A-induced MPO activity [1, 4]: 89±8%; percent inhibition of toxin A-induced luminal fluid accumulation [1, 4]: 84±6%; percent inhibition of toxin A-induced MPO activity ([2]; 10 μg intraluminal): 91±8%; percent inhibition of toxin A-induced luminal fluid accumulation ([2]; 10 μg intraluminal): 52±4%; percent inhibition of toxin A-induced MPO activity ([2]; 100 μg intraluminal): 89±10%; percent inhibition of toxin A-induced luminal fluid accumulation ([2]; 100 μg intraluminal): 80±5%; toxin A-induced structural damage of the colon (H&E) ([2]; 100 μg intraluminal): strongly protected; lowest dose that strongly inhibited toxin A-induced colitis in this experiment ([2]; intraluminal injection 30 minutes before toxin A, 10 and 100 μg tested): 10 μg/segment
2 | Nc1ccc(O)c(C(=O)O)c1 [5-ASA, 5-amino-2-hydroxy-benzoic acid, reference compound] | – | – | – | – | not significantly inhibited | significantly inhibited | did not prevent | significantly inhibited | partially preserved surface ulceration | significantly inhibited | significantly inhibited | mucosal folding was also largely preserved | significantly inhibited | significantly inhibited | virtually completely protected | approximately equipotent | –
3 | O=C(O)Cc1ccc(/N=N/c2ccc(O)c(C(=O)O)c2)cc1 [APAZA™, 5-(4-carboxymethyl-phenylazo)-2-hydroxy-benzoic acid] | significantly inhibited | significantly inhibited | strongly protected | 1-100 mg/kg·day | – | – | – | – | – | – | – | – | – | – | – | – | toxin A-induced structural damage of the colon (H&E) ([1]; 0.1 mg/kg·day in drinking water, 5 days): little if any protective effect; toxin A-induced luminal fluid accumulation, significance of inhibition [1, 6]: significantly inhibited; toxin A-induced structural damage of the colon (H&E) [1, 6]: partially protected; toxin A-induced MPO activity, significance of inhibition [1, 7]: significantly inhibited; toxin A-induced luminal fluid accumulation, significance of inhibition [1, 7]: significantly inhibited; toxin A-induced structural damage of the colon (H&E) [1, 7]: strongly protected; toxin A-induced MPO activity, significance of inhibition [1, 8]: significantly inhibited; toxin A-induced luminal fluid accumulation, significance of inhibition [1, 8]: significantly inhibited; toxin A-induced structural damage of the colon (H&E) [1, 8]: strongly protected; potency relative to sulfasalazine for inhibiting toxin A-induced colitis [1]: 10-20 fold; potency relative to sulfasalazine for inhibiting toxin A-induced colitis ([1]; listed as APAZA™ compound): 10-100 fold
